Key:
velvetleaf = assay: Test method 3: upland field, post-emergence foliar application test, herbicidal efficacy against velvetleaf; type: in vivo, Abutilon theophrasti; set-up: key: if there is no or almost no difference in the state of emergence or growth of test weeds at the time of investigation as compared with that of test weeds in an untreated control, the evaluation of the herbicidal efficacy is classified as “0”; if the test weeds are completely withered or emergence or growth of the test weeds is suppressed, the evaluation of the herbicidal efficacy is classified as “10”; conditions: scale 0 to 10
[1] = system: waterhemp (Amaranthus tuberculatus=A. rudis); assay: Test method 3: upland field, post-emergence foliar application test, herbicidal efficacy against waterhemp; type: in vivo; conditions: scale 0 to 10
[2] = system: velvetleaf (Abutilon theophrasti); assay: Test method 1: upland field, post-emergence foliar application test (velvetleaf); type: in vivo; set-up: key: if there is no or almost no difference in the state of emergence or growth of test weeds at the time of investigation as compared with that of test weeds in an untreated control, the evaluation of the herbicidal efficacy is classified as “0”; if the test weeds are completely withered or emergence or growth of the test weeds is suppressed, the evaluation of the herbicidal efficacy is classified as “10”; conditions: scale 0 to 10
Text: Next, the herbicidal efficacy of the compound of the present invention is shown by test examples. In the following test examples, the evaluation of the herbicidal efficacy is classified into 0 to 10, where if there is no or almost no difference in the state of emergence or growth of test weeds at the time of investigation as compared with that of test weeds in an untreated control, the evaluation of the herbicidal efficacy is classified as “0”, and if the test weeds are completely withered or emergence or growth of the test weeds is suppressed, the evaluation of the herbicidal efficacy is classified as “10”. A pot is filled with a commercially available culture soil, and seeds of velvetleaf (Abutilon theophrasti) are sown in the pot. Thereafter, the seeds are covered with approximately 0.5 cm of soil, and each of the seeds is cultivated in a greenhouse for 13 days. Next, a predetermined amount of the test compound is dissolved in 1 mL of a DMF solution containing 2% of an adjuvant, and 18 mL of water is added thereto, thereby preparing a diluent. The diluent is uniformly sprayed over plants so as to give the plants a predetermined treatment amount. Thereafter, the plants are cultivated in the greenhouse for 20 days, and herbicidal efficacy is evaluated.

corn (Zea mays) = conditions: in vivo, 7 days

C=CCOC(=O)C1(Oc2cc(-n3c(=O)cc(C(F)(F)F)n(C)c3=O)c(F)cc2Cl)CC1 [Compound B-1]
Herbicidal efficacy Velvetleaf 1 WAT (velvetleaf; dosage 16 gAI/ha): 10
Herbicidal efficacy Velvetleaf 1 WAT (velvetleaf; dosage 32 gAI/ha): 10
Herbicidal efficacy Waterhemp 1 WAT ([1]; dosage 16 gAI/ha): 9
Herbicidal efficacy Waterhemp 1 WAT ([1]; dosage 32 gAI/ha): 9

CCOC(=O)COC(=O)C1(Oc2cc(-n3c(=O)cc(C(F)(F)F)n(C)c3=O)c(F)cc2Cl)CC1 [Compound B-2]
Herbicidal efficacy Velvetleaf 1 WAT (velvetleaf; dosage 8 gAI/ha): 10
Herbicidal efficacy Velvetleaf 1 WAT (velvetleaf; dosage 16 gAI/ha): 10
Herbicidal efficacy Waterhemp 1 WAT ([1]; dosage 8 gAI/ha): 9
Herbicidal efficacy Waterhemp 1 WAT ([1]; dosage 16 gAI/ha): 9

Cn1c(=S)n(C)c(=O)n(-c2cc(OC3CCCC3)c(Cl)cc2F)c1=O [Compound C-1]
Herbicidal efficacy Velvetleaf 3 WAT ([2]; dosage 1 gAI/ha): 1
Herbicidal efficacy Velvetleaf 3 WAT ([2]; dosage 2 gAI/ha): 1

C=CCOC(=O)C(C)Oc1cc(-n2c(=O)n(C)c(=S)n(C)c2=O)c(F)cc1Cl (stereo not shown) [Compound C-2]
Herbicidal efficacy Velvetleaf 3 WAT ([2]; dosage 1 gAI/ha): 1
Herbicidal efficacy Velvetleaf 3 WAT ([2]; dosage 2 gAI/ha): 1

CCOCCOC(=O)C(C)Oc1cc(-n2c(=O)n(C)c(=S)n(C)c2=O)c(F)cc1Cl (stereo not shown) [Compound C-3]
Herbicidal efficacy Velvetleaf 3 WAT ([2]; dosage 1 gAI/ha): 1
Herbicidal efficacy Velvetleaf 3 WAT ([2]; dosage 2 gAI/ha): 1

C=CCOC(=O)C1(Oc2cc(-n3c(=O)n(C)c(=S)n(C)c3=O)c(F)cc2Cl)CC1 [Compound I-5]
Herbicidal efficacy Velvetleaf 1 WAT (velvetleaf; dosage 16 gAI/ha): 10
Herbicidal efficacy Velvetleaf 1 WAT (velvetleaf; dosage 32 gAI/ha): 10
Herbicidal efficacy Velvetleaf 3 WAT ([2]; dosage 1 gAI/ha): 10
Herbicidal efficacy Velvetleaf 3 WAT ([2]; dosage 2 gAI/ha): 10
Phytotoxicity Corn 1 WAT (corn (Zea mays)): 1
Herbicidal efficacy Waterhemp 1 WAT ([1]; dosage 16 gAI/ha): 9
Herbicidal efficacy Waterhemp 1 WAT ([1]; dosage 32 gAI/ha): 9

CCOC(=O)COC(=O)C1(Oc2cc(-n3c(=O)n(C)c(=S)n(C)c3=O)c(F)cc2Cl)CC1 [Compound I-14]
Herbicidal efficacy Velvetleaf 1 WAT (velvetleaf; dosage 8 gAI/ha): 10
Herbicidal efficacy Velvetleaf 1 WAT (velvetleaf; dosage 16 gAI/ha): 10
Herbicidal efficacy Velvetleaf 3 WAT ([2]; dosage 1 gAI/ha): 10
Herbicidal efficacy Velvetleaf 3 WAT ([2]; dosage 2 gAI/ha): 10
Phytotoxicity Corn 1 WAT (corn (Zea mays)): 1
Herbicidal efficacy Waterhemp 1 WAT ([1]; dosage 8 gAI/ha): 9
Herbicidal efficacy Waterhemp 1 WAT ([1]; dosage 16 gAI/ha): 9
